Data reported in PMC4850273 (mBio, 2016).

Biological target: T1, SGBP-A (Bacteroides ovatus, UniProt A7LXT5)
T1 sequence (A7LXT5 28-546): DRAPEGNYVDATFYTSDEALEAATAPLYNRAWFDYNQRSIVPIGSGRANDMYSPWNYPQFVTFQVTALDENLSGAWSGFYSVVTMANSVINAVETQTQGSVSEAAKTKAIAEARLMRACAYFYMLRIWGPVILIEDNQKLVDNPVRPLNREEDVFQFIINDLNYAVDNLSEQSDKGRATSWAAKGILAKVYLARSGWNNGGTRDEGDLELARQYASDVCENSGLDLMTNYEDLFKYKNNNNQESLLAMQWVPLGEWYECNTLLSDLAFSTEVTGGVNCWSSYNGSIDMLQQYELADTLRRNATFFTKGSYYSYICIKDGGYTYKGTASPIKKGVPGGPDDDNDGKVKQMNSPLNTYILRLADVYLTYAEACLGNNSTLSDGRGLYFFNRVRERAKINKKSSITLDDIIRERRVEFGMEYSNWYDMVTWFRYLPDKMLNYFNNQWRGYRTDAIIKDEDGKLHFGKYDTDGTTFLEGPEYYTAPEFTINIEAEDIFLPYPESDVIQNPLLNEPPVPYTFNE
Assay: ITC
Type: binding
Settings: 25 °C, 20 mM HEPES, 100 mM NaCl, pH 7.0; two titrations

OC[C@H]1O[C@@H](O[C@H]2[C@H](O)[C@@H](O)[C@H](O[C@H]3[C@H](O)[C@@H](O)[C@H](O[C@H]4[C@H](O)[C@@H](O)[C@H](O[C@H]5[C@H](O)[C@@H](O)[C@H](O[C@H]6[C@H](O)[C@@H](O)C(O)O[C@@H]6CO)O[C@@H]5CO)O[C@@H]4CO)O[C@@H]3CO)O[C@@H]2CO)[C@H](O)[C@@H](O)[C@@H]1O (stereo partly shown) [Cellohexaose]
Ka (M^-1) / SGBP-A: 568.0 ± 291.0
